Test results from patent publication US7338950B2, “Amide compounds as ion channel ligands and uses thereof” (Renovis, Inc., priority 2003, dated 2008).

Tested on: VR1 receptor (293 cells expressing capsaicin-insensitive VR1 receptor variants)
Assay: High throughput screening of VR1 antagonists using a calcium imaging assay (Fura2, pH 5.1 stimulus);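 note: Fura2 ratiometric fluorescence read every 4 s over 3 min, response taken as peak ratio minus baseline before pre-treatment, compound pre-treatment preceding acid challenge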
Details: 1 uM compound; inhibition of calcium ion influx
Text: A dual wavelength ratiometric dye, Fura2, was used as an indicator of relative levels of calcium ions in a 96 well format using a bench top scanning fluorometer with integrated fluidics and temperature control (Flex Station, Molecular Devices).
A dual wavelength ratiometric dye, Fura2, was used as an indicator of relative levels of [Ca2+] in a 96 well format using a bench top scanning fluorometer with integrated fluidics and temperature control (Flex Station, Molecular Devices).
293 cells were grown on PDL coated 96-well black-walled plates, in the presence of a DMEM medium containing 5% Penstrep, 5% Glutamax, 200 ug/mL Hygromycin, 5 μg/mL Blasticide and 10% heat inactivated FBS. Prior to assay, the cells were loaded with 5 μg/mL Fura2 in normal saline solution at 37° C. for 40 minutes. Cells were then washed with normal saline to remove the dye.
The assay consists of two stages; a pre-treatment phase followed by a treatment phase.
50 μl of a compound solution was added to the cells (Pre-treatment). Immediately following, 50 μl of the test compound in a saline solution at pH 5.1 was added. […] Changes in wavelength measurements were made throughout the course of the experiment in 4 second intervals over a period of 3 minutes. Responses were measured as peak fluorescence ratio after test compound addition minus baseline fluorescence ratio prior to pre-treatment and were calculated using SoftMaxPro softwareData were expressed as percentage inhibition calculated using Excel as follows:

How did the “% Inhibition @ 1 uM” value turn out when `COc1ccc(NC(=O)c2ccc(-c3ncccc3Cl)c(OC)c2)cc1` [Compound 1207] was run?
The value was “+ (compound exhibited 0-25% inhibition of calcium ion influx induced by capsaicin stimulation)”.

With `O=C(Nc1ccc2c(c1)OCCO2)c1ccc(-c2ncccc2Cl)cc1` [Compound 1018] as the compound, how does the “% Inhibition @ 1 uM” value read?
The value was “++ (compound exhibited 25-50% inhibition of calcium ion influx induced by capsaicin stimulation)”.

With `CCOc1ccc(NC(=O)c2ccc(-c3ncccc3Cl)cc2)cc1` [Compound 1298] as the compound, how does the “% Inhibition @ 1 uM” value read?
Its value is “+ (compound exhibited 0-25% inhibition of calcium ion influx induced by capsaicin stimulation)”.

How did the “% Inhibition @ 1 uM” value turn out when `O=C(Nc1ccc2cn[nH]c2c1)c1ccc(-c2ncccc2Cl)c(F)c1` [Compound 1189] was run?
Its value is “+++ (compound exhibited 50-75% inhibition of calcium ion influx induced by capsaicin stimulation)”.

With `CC(C)(CO)NC(=O)c1ccc(-c2ncccc2Cl)cc1` [Compound 1058] as the compound, how does the “% Inhibition @ 1 uM” value read?
The value was “+ (compound exhibited 0-25% inhibition of calcium ion influx induced by capsaicin stimulation)”.

How did the “% Inhibition @ 1 uM” value turn out when `CCCOc1ccc(NC(=O)c2ccc(-c3ncccc3Cl)cn2)cc1` [Compound 1358] was run?
Its value is “+ (compound exhibited 0-25% inhibition of calcium ion influx induced by capsaicin stimulation)”.

`COc1cc(C(=O)Nc2ccc(F)c(F)c2)ccc1-c1ncccc1Cl` [Compound 1271] was tested. Which “% Inhibition @ 1 uM” value did it give?
The value was “+++ (compound exhibited 50-75% inhibition of calcium ion influx induced by capsaicin stimulation)”.

For `O=C(Nc1ccc(F)c(F)c1)c1ccc(-c2ncccc2Cl)cn1` [Compound 1363], which “% Inhibition @ 1 uM” value is on record?
Its value is “++++ (compound exhibited 75% or greater inhibition of calcium ion influx induced by capsaicin stimulation)”.

How did the “% Inhibition @ 1 uM” value turn out when `Cc1cc(NC(=O)c2ccc(-c3ncccc3Cl)cc2)nc(C)n1` [Compound 1052] was run?
Its value is “+ (compound exhibited 0-25% inhibition of calcium ion influx induced by capsaicin stimulation)”.

`O=C(Nc1ccncc1)c1ccc(-c2ncccc2Cl)c(F)c1` [Compound 1157] was tested. Which “% Inhibition @ 1 uM” value did it give?
Its value is “++++ (compound exhibited 75% or greater inhibition of calcium ion influx induced by capsaicin stimulation)”.

For `CC(C)c1ccc(NC(=O)c2ccc(-c3ncccc3Cl)cc2)cc1` [Compound 1042], which “% Inhibition @ 1 uM” value is on record?
The value was “++++ (compound exhibited 75% or greater inhibition of calcium ion influx induced by capsaicin stimulation)”.

For `O=C(Nc1ccc(C(F)(F)F)cn1)c1ccc(-c2ncccc2Cl)c(F)c1` [Compound 1166], which “% Inhibition @ 1 uM” value is on record?
Its value is “++ (compound exhibited 25-50% inhibition of calcium ion influx induced by capsaicin stimulation)”.

Which “% Inhibition @ 1 uM” value does the source give for `O=C(Nc1ccc(OC(F)(F)F)cc1)c1ccc(-c2ncccc2Cl)cn1` [Compound 1360] here?
Its value is “+ (compound exhibited 0-25% inhibition of calcium ion influx induced by capsaicin stimulation)”.

How did the “% Inhibition @ 1 uM” value turn out when `O=C(Nc1nccs1)c1ccc(-c2ncccc2Cl)cc1` [Compound 1055] was run?
Its value is “+ (compound exhibited 0-25% inhibition of calcium ion influx induced by capsaicin stimulation)”.

Which “% Inhibition @ 1 uM” value does the source give for `COc1cc(C(=O)Nc2cccc(OC(C)C)c2)ccc1-c1ncccc1Cl` [Compound 1270] here?
Its value is “+ (compound exhibited 0-25% inhibition of calcium ion influx induced by capsaicin stimulation)”.

`COc1cc(C(=O)Nc2cc(OC)c(OC)c(OC)c2)ccc1-c1ncccc1Cl` [Compound 1263] was tested. Which “% Inhibition @ 1 uM” value did it give?
Its value is “++++ (compound exhibited 75% or greater inhibition of calcium ion influx induced by capsaicin stimulation)”.

How did the “% Inhibition @ 1 uM” value turn out when `COc1cc(C(=O)Nc2cccc(Cl)c2)ccc1-c1ncccc1Cl` [Compound 1210] was run?
The value was “+ (compound exhibited 0-25% inhibition of calcium ion influx induced by capsaicin stimulation)”.

`COc1cc(C(=O)Nc2cc(C)cc(C)n2)ccc1-c1ncccc1Cl` [Compound 1234] was tested. Which “% Inhibition @ 1 uM” value did it give?
Its value is “+ (compound exhibited 0-25% inhibition of calcium ion influx induced by capsaicin stimulation)”.

How did the “% Inhibition @ 1 uM” value turn out when `Cc1cccnc1NC(=O)c1ccc(-c2ncccc2Cl)cc1` [Compound 1065] was run?
Its value is “++ (compound exhibited 25-50% inhibition of calcium ion influx induced by capsaicin stimulation)”.

Which “% Inhibition @ 1 uM” value does the source give for `CCCc1ccccc1NC(=O)c1ccc(-c2ncccc2Cl)c(OC)c1` [Compound 1212] here?
Its value is “++ (compound exhibited 25-50% inhibition of calcium ion influx induced by capsaicin stimulation)”.
